Compound: CC(C)(Oc1ccc(CCNC(=O)c2ccc(Cl)cc2)cc1)C(=O)O
- solubility (mole fraction) (in ethanol, 283.15 K): 0.00223
- solubility (mole fraction) (in ethanol, 288.15 K): 0.00271
- solubility (mole fraction) (in ethanol, 293.15 K): 0.00332
- solubility (mole fraction) (in ethanol, 298.15 K): 0.00402
- solubility (mole fraction) (in ethanol, 303.15 K): 0.00482
- solubility (mole fraction) (in ethanol, 308.15 K): 0.00571
- solubility (mole fraction) (in ethanol, 313.15 K): 0.00689
- solubility (mole fraction) (in ethanol, 318.15 K): 0.00815
- solubility (mole fraction) (in ethanol, 323.15 K): 0.00977
- solubility (mole fraction) (in isopropanol, 283.15 K): 0.00152
- solubility (mole fraction) (in isopropanol, 288.15 K): 0.00189
- solubility (mole fraction) (in isopropanol, 293.15 K): 0.00237
- solubility (mole fraction) (in isopropanol, 298.15 K): 0.00307
- solubility (mole fraction) (in isopropanol, 303.15 K): 0.00384
- solubility (mole fraction) (in isopropanol, 308.15 K): 0.00476
- solubility (mole fraction) (in isopropanol, 313.15 K): 0.00563
- solubility (mole fraction) (in isopropanol, 318.15 K): 0.00689
- solubility (mole fraction) (in isopropanol, 323.15 K): 0.00832
- solubility (mole fraction) (in methanol, 283.15 K): 0.0019
- solubility (mole fraction) (in methanol, 288.15 K): 0.00228
- solubility (mole fraction) (in methanol, 293.15 K): 0.00283
- solubility (mole fraction) (in methanol, 298.15 K): 0.00343
- solubility (mole fraction) (in methanol, 303.15 K): 0.0043
- solubility (mole fraction) (in methanol, 308.15 K): 0.00526
- solubility (mole fraction) (in methanol, 313.15 K): 0.00648
- solubility (mole fraction) (in methanol, 318.15 K): 0.00791
- solubility (mole fraction) (in methanol, 323.15 K): 0.00948
- solubility (mole fraction) (in n-propanol, 283.15 K): 0.00246
- solubility (mole fraction) (in n-propanol, 288.15 K): 0.00297
- solubility (mole fraction) (in n-propanol, 293.15 K): 0.00361
- solubility (mole fraction) (in n-propanol, 298.15 K): 0.00437
- solubility (mole fraction) (in n-propanol, 303.15 K): 0.00524
- solubility (mole fraction) (in n-propanol, 308.15 K): 0.00631
- solubility (mole fraction) (in n-propanol, 313.15 K): 0.00743
- solubility (mole fraction) (in n-propanol, 318.15 K): 0.0088
- solubility (mole fraction) (in n-propanol, 323.15 K): 0.0101
- solubility (mole fraction) (in water, 283.15 K): 1.23e-06
- solubility (mole fraction) (in water, 288.15 K): 1.58e-06
- solubility (mole fraction) (in water, 293.15 K): 2.01e-06
- solubility (mole fraction) (in water, 298.15 K): 2.56e-06
- solubility (mole fraction) (in water, 303.15 K): 3.29e-06
- solubility (mole fraction) (in water, 308.15 K): 4.13e-06
- solubility (mole fraction) (in water, 313.15 K): 5.13e-06
- solubility (mole fraction) (in water, 318.15 K): 6.3e-06
- solubility (mole fraction) (in water, 323.15 K): 7.83e-06

Source: BigSolDB 2.1
